Results reported in the NIST ThermoML archive (doi:10.1021/je900259b).

Legend:
[1] = Liquid; for mass density: 298.15 K, 101.33 kPa, Vibrating tube method; for vapor or sublimation pressure: Closed cell (Static) method; for Normal boiling temperature: Ebulliometric method (Recirculating still)
[2] = refractive index (Na D-line) (dimensionless); conditions: 298.15 K; 101.33 kPa; Liquid; Standard Abbe refractometry

COCCO [2-methoxyethan-1-ol]
Conditions | mass density [kg/m3] | refractive index
[1] | 960.02 | –
[2] | – | 1.4006

[1]
Conditions | vapor or sublimation pressure [kPa]
345.94 K | 14.98
349.54 K | 17.51
352.72 K | 20.02
355.49 K | 22.45
358.12 K | 25.02
360.51 K | 27.53
362.72 K | 29.98
364.76 K | 32.52
366.62 K | 34.91
368.51 K | 37.49
370.14 K | 39.92
371.85 K | 42.51
373.35 K | 44.91
374.89 K | 47.49
376.28 K | 49.96
377.65 K | 52.42
378.98 K | 54.96
380.23 K | 57.48
381.44 K | 59.94
382.64 K | 62.46
383.74 K | 64.87
384.89 K | 67.49
385.95 K | 69.92
387.02 K | 72.45
388.02 K | 74.99
388.98 K | 77.41
389.94 K | 79.86
390.92 K | 82.45
391.85 K | 84.96
392.74 K | 87.49
393.61 K | 89.96
394.47 K | 92.48
395.32 K | 94.94
396.12 K | 97.48
396.96 K | 100.03
397.37 K | 101.3

C1CCCCC1 [cyclohexane]
Conditions | Normal boiling temperature [°C] | mass density [kg/m3] | refractive index
[1] | 80.58 | 773.82 | –
[2] | – | – | 1.4238

C1=CCCCC1 [cyclohexene]
Conditions | Normal boiling temperature [°C] | mass density [kg/m3] | refractive index
[1] | 82.82 | 805.69 | –
[2] | – | – | 1.4444
